Test results reported in the supplement of paper PMC10307832.

What was measured:
Test in all cases: relative viability (nuclei count vs DMSO), 5 days (fraction); higher = more cells survive
[1] = compound: CC1=C(CC(=O)O)c2cc(F)ccc2/C1=C\c1ccc([S+](C)[O-])cc1 [Sulindac] + COc1cc2c(Oc3ccc(NC(=O)C4(C(=O)Nc5ccc(F)cc5)CC4)cc3F)ccnc2cc1OCCCN1CCOCC1 [Foretinib] (partner 0.25 µM)
Procedure, shortened: (§1)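 Cells from lung cancer lines were seeded into 1536-well plates and, one day later, dosed by pin tool. Treatments were either a single drug or a fixed dose of an anchor drug with five library-drug doses (not always all listed) in √10 steps. After 5 days, nuclei were stained in a one-step fixation (final 0.05% Triton X-100, 1% formaldehyde, 1 ug/ml Hoechst) and counted on 4× images, and relative viability is the treated-to-vehicle nuclei ratio, as the median of duplicate plates.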

[2] = compound: CN[C@@H]1C[C@H]2O[C@@](C)([C@@H]1OC)n1c3ccccc3c3c4c(c5c6ccccc6n2c5c31)C(=O)NC4 [Staurosporine] + COc1cc2c(Oc3ccc(NC(=O)C4(C(=O)Nc5ccc(F)cc5)CC4)cc3F)ccnc2cc1OCCCN1CCOCC1 [Foretinib] (partner 0.25 µM)
Procedure, shortened: as §1

[3] = compound: O=c1[nH]cc(F)c(=O)[nH]1 [5-Fluorouracil] + CC(C)C[C@H](NC(=O)[C@H](Cc1ccccc1)NC(=O)c1cnccn1)B(O)O [Bortezomib] (partner 0.002 µM)
Procedure, shortened: as §1

[4] = compound: O=c1[nH]cc(F)c(=O)[nH]1 [5-Fluorouracil] + CCNC(=O)c1noc(-c2cc(C(C)C)c(O)cc2O)c1-c1ccc(CN2CCOCC2)cc1 [Luminespib] (partner 0.01 µM)
Procedure, shortened: as §1

Cell Line	relative viability ([1]; first compound 0.08 µM)	relative viability ([1]; first compound 0.253 µM)	relative viability ([1]; first compound 0.8 µM)	relative viability ([1]; first compound 2.53 µM)	relative viability ([1]; first compound 8 µM)	relative viability ([2]; first compound 0.005 µM)	relative viability ([2]; first compound 0.01581 µM)	relative viability ([2]; first compound 0.05 µM)	relative viability ([2]; first compound 0.1581 µM)	relative viability ([2]; first compound 0.5 µM)	relative viability ([3]; first compound 0.02 µM)	relative viability ([3]; first compound 0.2 µM)	relative viability ([3]; first compound 0.6325 µM)	relative viability ([3]; first compound 2 µM)	relative viability ([4]; first compound 0.02 µM)	relative viability ([4]; first compound 0.2 µM)	relative viability ([4]; first compound 0.6325 µM)	relative viability ([4]; first compound 2 µM)
RERF-LC-KJ	1.03	0.934	0.65	0.856	0.927	0.876	0.824	0.702	0.491	0.191	1.24	1.17	1.14	0.939	1.42	1.24	1.22	0.904
NCI-H1734	0.864	0.956	–	1.03	0.958	0.577	0.453	0.317	0.137	0.156	0.853	1.06	0.723	0.494	0.173	0.193	0.198	0.189
NCI-H1650	1.05	1.21	–	1.24	1.32	0.927	0.586	0.201	0.216	0.133	0.195	0.187	0.185	0.174	0.213	0.185	0.246	0.211
PC-14	1.07	1.14	0.671	1.04	1.01	0.929	0.718	0.38	0.102	0.0787	0.876	0.897	0.818	0.516	0.117	0.151	0.171	0.191
NCI-H1915	1.26	1.2	–	1.11	1.15	–	0.542	0.552	0.283	0.278	0.717	1	0.915	0.765	0.658	0.855	0.699	0.597
COR-L23	1.18	1.03	0.88	0.982	1.26	0.513	0.459	0.376	0.119	0.0927	1.04	0.85	0.41	0.221	0.86	0.691	0.512	0.168
ChaGo-K-1	1.05	0.999	0.925	0.991	0.926	0.881	0.528	0.676	0.223	0.188	0.955	1.04	0.7	0.705	0.6	0.513	0.406	0.358
HOP-62	1.18	1.1	–	1.23	1.25	0.801	0.233	0.142	0.125	0.119	0.85	0.891	0.859	0.558	0.953	0.92	0.853	0.855
NCI-H1975	1.12	1.01	1.05	0.993	1.05	0.4	0.349	0.21	0.104	0.0901	0.472	0.3	0.214	0.17	0.302	0.217	0.397	0.237
BEN	0.834	0.693	0.57	0.569	0.771	0.688	0.418	0.248	0.221	0.187	0.779	0.869	0.655	0.655	0.18	0.399	0.543	0.371
NCI-H1437	1.33	1.23	1	1.28	1.42	1.13	–	0.854	0.58	0.169	–	0.218	0.144	0.128	0.706	0.324	0.313	0.202
EMC-BAC-2	0.953	1.05	0.892	1.02	1.08	0.397	0.344	0.252	0.23	0.106	1.16	1.17	1.1	1.02	1.12	1.23	1.22	1.16
SW 1573	1.19	1.17	0.776	0.788	0.955	0.852	0.943	0.203	0.176	0.104	1.08	1.1	0.922	0.638	0.253	0.228	0.323	0.169
NCI-H661	1.12	1.05	0.999	1.1	1.03	1.13	0.571	0.481	0.27	0.216	0.669	0.816	0.759	0.804	0.942	–	0.955	0.888
LXF-289	0.98	1.05	0.98	1.02	1.03	1.01	0.164	0.268	0.0989	0.0792	0.99	0.712	0.312	0.282	0.701	0.435	0.251	0.238
LOU-NH91	0.859	0.964	0.876	0.935	1.11	0.923	0.816	0.627	0.512	0.238	0.522	0.559	0.37	0.36	0.37	0.355	0.332	0.277
NCI-H2347	1.08	0.562	0.645	1.26	0.807	1.04	0.588	0.374	0.289	0.422	0.962	1.1	0.367	0.446	0.41	0.72	0.41	0.411
NCI-H2009	1.32	1.26	1.26	1.22	1.12	0.527	0.389	0.212	0.177	0.127	1.04	1.01	0.722	0.463	1.18	1.12	1.12	0.645
